Here are results for eleven molecules from ChEMBL document CHEMBL1201862, “PubChem BioAssay data set” (2004).

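Results reflect a 48-hour exposure of cells in 96-well plates to compound at five concentrations. At the GI50, growth is halved.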 Active and inactive are the calls of the source. Cut-off read from the data, not from the text of the source: active = GI50 up to about 1.1 µM and inactive = higher. Bounds are passed on as bounds.

Some test systems named below: UACC-257; KM12; LOX IMVI; OVCAR-5; 786-0; SF-268; RPMI-8226; A498; K562; CCRF-CEM; SK-MEL-28; HCT-116; SK-MEL-5; IGROV-1.
What all share (experiment): NCI anticancer screen, dose series, 48 h

In the case of `Cc1c(C(=O)Nc2ccc(Cl)c(C(F)(F)F)c2)oc2cc(O)ccc2/c1=N\NC(N)=S`, the GI50 in the test on UACC-257, in the test on KM12, in the test with LOX IMVI, in the test with OVCAR-5, in the test on 786-0 and in the test on SF-268 was > 100 µM (inactive) throughout. Moreover, the GI50 in the test on RPMI-8226, with A498, in the test with K562, in the test with CCRF-CEM, with SK-MEL-28 and in the test on HCT-116 was > 100 µM (inactive) in each case. Further, the GI50 in the test on SK-MEL-5 and with IGROV-1 was > 100 µM (inactive) each time.
With `Oc1cc2cc(-c3ccccc3)[nH]c2c2ccccc12`, the GI50 in the test on UACC-257 was 16 µM (inactive); in the test on KM12 it was 27.4 µM (inactive); in the test on LOX IMVI it was 16.1 µM (inactive); with OVCAR-5 it was > 100 µM (inactive); in the test on 786-0 it was > 59 µM (inactive); in the test on SF-268, 47.1 µM (inactive). In addition, the GI50 with RPMI-8226 is 16.6 µM (inactive); in the test with A498, > 100 µM (inactive); with K562 it was 26.7 µM (inactive); in the test with CCRF-CEM it was 28.6 µM (inactive); in the test with SK-MEL-28, 42.3 µM (inactive); with HCT-116 it was 17.1 µM (inactive). Further, the GI50 was 14.1 µM (inactive) in the test with SK-MEL-5 and 35.6 µM (inactive) with IGROV-1.
For `CCC1c2cc3n(c(=O)c2COC1O)Cc1c-3nc2ccccc2c1Cl` (centres undefined), the GI50 in the test on UACC-257 is > 100 µM (inactive); in the test with KM12, > 100 µM (inactive); with LOX IMVI it was 18.6 µM (inactive); in the test on OVCAR-5, > 100 µM (inactive); with 786-0 it was 25.7 µM (inactive); in the test on SF-268, 14.4 µM (inactive). In addition, the GI50 in the test on RPMI-8226 is > 29.3 µM (inactive); with A498, 52.6 µM (inactive); in the test on K562, 32.2 µM (inactive); in the test on CCRF-CEM, 3.34 µM (inactive); with SK-MEL-28, > 100 µM (inactive); in the test with HCT-116, 20.1 µM (inactive). In addition, the GI50 with SK-MEL-5 is 29.4 µM (inactive); in the test with IGROV-1 it was > 75.3 µM (inactive).
As for `CCOC(=O)C1=C(C)NC(=O)NC1c1ccc(OC)cc1OC` (centres undefined), the GI50 in the test on UACC-257, in the test with KM12, in the test with LOX IMVI, in the test on OVCAR-5, in the test on 786-0 and in the test with SF-268 was > 100 µM (inactive) each time. Also, the GI50 in the test with RPMI-8226 is 79.1 µM (inactive); in the test on A498, > 100 µM (inactive); with K562 it was > 100 µM (inactive); in the test on CCRF-CEM, 84.5 µM (inactive); in the test with HCT-116, > 100 µM (inactive); in the test with SK-MEL-5, > 100 µM (inactive). Moreover, the GI50 with IGROV-1 was > 100 µM (inactive).
Take `COc1cc(NS(=O)(=O)c2ccc(C)cc2)c2nccnc2c1`: the GI50 in the test with UACC-257 was 29.8 µM (inactive); in the test on KM12 it was 32.6 µM (inactive); with LOX IMVI, 28 µM (inactive); in the test on OVCAR-5, 89.7 µM (inactive); with 786-0, 36.1 µM (inactive); with SF-268, 24.7 µM (inactive). The GI50 with RPMI-8226 was 25.5 µM (inactive); with A498, 56.2 µM (inactive); in the test on K562 it was 20.4 µM (inactive); in the test on CCRF-CEM, 10.3 µM (inactive); in the test with SK-MEL-28 it was 30.7 µM (inactive); in the test on SK-MEL-5, 23.7 µM (inactive). Besides, the GI50 with IGROV-1 is 36.9 µM (inactive).
Consider `Cc1ccc(S(=O)(=O)N/N=C(\c2nc3ccc(Cl)cc3nc2O)C(O)c2cccc([N+](=O)[O-])c2)cc1` (centres undefined), for which the GI50 in the test on UACC-257, in the test on KM12, in the test with LOX IMVI, with OVCAR-5, with 786-0 and in the test on SF-268 was > 100 µM (inactive) each time. The GI50 with RPMI-8226 is 71 µM (inactive); with A498 it was > 100 µM (inactive); in the test on K562, > 100 µM (inactive); with CCRF-CEM, 52.7 µM (inactive); in the test with SK-MEL-28 it was > 100 µM (inactive); with HCT-116, > 100 µM (inactive). The GI50 with SK-MEL-5 and with IGROV-1 was > 100 µM (inactive) each time.
Consider `Cc1ccc([S+](c2ccccc2)c2cc(C)ccc2C)cc1` (centres undefined), for which the GI50 in the test with UACC-257 is 1.48 µM (inactive); in the test on KM12, 2.85 µM (inactive); in the test on LOX IMVI, 2.35 µM (inactive); in the test with 786-0, 35.2 µM (inactive); with SF-268, 6.64 µM (inactive); with RPMI-8226, 3.66 µM (inactive). In addition, the GI50 with A498 is 0.0435 µM (active); with K562, 0.374 µM (active); in the test on CCRF-CEM, 0.438 µM (active); in the test on HCT-116, 2.94 µM (inactive); in the test on SK-MEL-5 it was 0.53 µM (active); with IGROV-1 it was 0.117 µM (active).
As to `COc1cc(Cl)c2c3c(c(C(C)=O)oc13)CCC2`, the GI50 in the test on UACC-257 is > 100 µM (inactive); in the test with LOX IMVI, > 100 µM (inactive); with 786-0, > 100 µM (inactive); in the test with RPMI-8226 it was 86.9 µM (inactive); in the test on A498 it was > 100 µM (inactive); in the test on K562, > 100 µM (inactive). The GI50 with CCRF-CEM, with SK-MEL-28, in the test on HCT-116, with SK-MEL-5 and in the test on IGROV-1 was > 100 µM (inactive) throughout.
In the case of `CCOC(=O)/C(=C\c1ccccc1)C(=O)O`, the GI50 with UACC-257, with KM12, with LOX IMVI, with OVCAR-5, in the test on 786-0 and with SF-268 was > 100 µM (inactive) in each case. Further, the GI50 in the test on RPMI-8226, with A498, in the test on K562, in the test with CCRF-CEM, in the test on SK-MEL-28 and with HCT-116 was > 100 µM (inactive) in each case. For the same molecule, the GI50 in the test with SK-MEL-5 and in the test on IGROV-1 was > 100 µM (inactive) throughout.
Turning to `CC1=C[C@H]2c3c([nH]c4ccccc34)C(c3c[nH]c4ccccc34)[C@H]2CC1` (some centres undefined), the GI50 was 13.4 µM (inactive) with UACC-257; 2.19 µM (inactive) in the test with LOX IMVI; 3.88 µM (inactive) in the test with 786-0; 3.24 µM (inactive) in the test on RPMI-8226; 15.5 µM (inactive) in the test with A498; 3.75 µM (inactive) in the test with K562. Moreover, the GI50 was 3.36 µM (inactive) in the test with CCRF-CEM; 12.1 µM (inactive) in the test with SK-MEL-28; 3.27 µM (inactive) with HCT-116; 11.9 µM (inactive) in the test on SK-MEL-5; 7.96 µM (inactive) in the test with IGROV-1.
Take `Nc1cccc2c1C(=O)c1cccc(N)c1C2=O`: the GI50 with UACC-257, with KM12, in the test with LOX IMVI, in the test on OVCAR-5, with 786-0 and in the test on SF-268 was > 100 µM (inactive) in each case. Further, the GI50 in the test on RPMI-8226, in the test on A498, with K562, in the test on CCRF-CEM, in the test on SK-MEL-28 and in the test on HCT-116 was > 100 µM (inactive) in each case. Also, the GI50 with SK-MEL-5 and in the test with IGROV-1 was > 100 µM (inactive) in each case.
